Measured values: PubChem BioAssay AID1259407 (Chemical Carcinogenesis Research Information System (CCRIS), 2018)
The source made the active and inactive calls. The rule behind the calls is not given here.

System: CCRIS mutagenicity, Ames/micronucleus/aberration tests
Test: CCRIS mutagenicity studies
[1] = Test System: AMES SALMONELLA TYPHIMURIUM, Strain/Indicator: TA98, Metabolic Activation: NONE, Method: STANDARD PLATE
[2] = Test System: AMES SALMONELLA TYPHIMURIUM, Strain/Indicator: TA98, Metabolic Activation: RAT, LIVER, S-9, AROCLOR 1254, Method: STANDARD PLATE
[3] = Test System: AMES SALMONELLA TYPHIMURIUM, Strain/Indicator: TA100, Metabolic Activation: NONE, Method: STANDARD PLATE
[4] = Test System: AMES SALMONELLA TYPHIMURIUM, Strain/Indicator: TA100, Metabolic Activation: RAT, LIVER, S-9, AROCLOR 1254, Method: STANDARD PLATE
[5] = Test System: AMES SALMONELLA TYPHIMURIUM, Strain/Indicator: TA1535, Metabolic Activation: NONE, Method: STANDARD PLATE
[6] = Test System: AMES SALMONELLA TYPHIMURIUM, Strain/Indicator: TA1535, Metabolic Activation: RAT, LIVER, S-9, AROCLOR 1254, Method: STANDARD PLATE
[7] = Test System: AMES SALMONELLA TYPHIMURIUM, Strain/Indicator: TA1537, Metabolic Activation: NONE, Method: STANDARD PLATE
[8] = Test System: AMES SALMONELLA TYPHIMURIUM, Strain/Indicator: TA1538, Metabolic Activation: NONE, Method: STANDARD PLATE
[9] = Test System: AMES SALMONELLA TYPHIMURIUM, Strain/Indicator: TA1538, Metabolic Activation: RAT, LIVER, S-9, AROCLOR 1254, Method: STANDARD PLATE
[10] = Test System: AMES SALMONELLA TYPHIMURIUM, Strain/Indicator: TA98, Metabolic Activation: NONE, Method: PREINCUBATION
[11] = Test System: AMES SALMONELLA TYPHIMURIUM, Strain/Indicator: TA100, Metabolic Activation: NONE, Method: PREINCUBATION
[12] = Test System: AMES SALMONELLA TYPHIMURIUM, Strain/Indicator: TA1535, Metabolic Activation: NONE, Method: PREINCUBATION

For `Nc1cccc2c1C(=O)c1cccc(N)c1C2=O`, the mutagenic call [1] was “inactive; negative”, the mutagenic call [2] was “active; positive” and the mutagenic call [3] was “inactive; negative”. The mutagenic call [4] was “inactive; negative”, the mutagenic call [5] was “inactive; negative” and the mutagenic call [6] was “inactive; negative”. For the same molecule, the mutagenic call [7] was “inactive; negative”, the mutagenic call [8] was “inactive; negative” and the mutagenic call [9] was “active; positive”.
`CC[C@@]1(O)C(=O)OCc2c1cc1n(c2=O)Cc2cc3ccccc3nc2-1` was tested, and the mutagenic call (End Point: In vitro micronucleus, Test System: Human lymphoblastoid TK6 cells, Metabolic Activation: None) was “active; positive (no dose response; toxicity may play a role)”, the mutagenic call (End Point: In vivo micronucleus, Test System: Peripheral blood reticulocytes, Species: Mouse, Strain/Sex: CD2F1, Route: Oral) was “active; positive” and the mutagenic call (End Point: In vivo micronucleus, Test System: Peripheral blood reticulocytes, Species: Mouse, Strain/Sex: Muta Mouse, Route: Oral) was “active; positive”. For the same molecule, the mutagenic call (Test System: CHINESE HAMSTER V-79, Strain/Indicator: V-79 (HPRT)/6-THIOGUANINE, Metabolic Activation: NONE) was “active; positive”, the mutagenic call (Test System: LacZ plasmid mouse (C57BL/6J transgenic), Strain/Indicator: LacZ Mutant frequency, Method: Bone marrow and liver harvested 35 days after last dose) was “inactive; negative” and the mutagenic call (Test System: LacZ transgenic mouse (Muta Mouse), Strain/Indicator: LacZ Mutant frequency, Method: Bone marrow and liver harvested 35 days after last dose) was “inactive; negative”. The mutagenic call (Test System: LacZ transgenic mouse (Muta Mouse), Strain/Indicator: LacZ Mutant frequency, Method: Liver and kidney harvested 37 days after last dose) was “inactive; negative”.
For `CCCc1cc(=O)oc2c3c(c4c(c12)OC(C)(C)CC4)O[C@@H](C)[C@H](C)[C@@H]3O`, the mutagenic call (Test System: Mouse lymphoma, Strain/Indicator: L5178Y (tk+/tk-), Metabolic Activation: None, Method: Suspension/plate) was “inactive; negative” and the mutagenic call (Test System: Mouse lymphoma, Strain/Indicator: L5178Y (tk+/tk-), Metabolic Activation: Rat, Liver, S-9, Aroclor 1254, Method: Suspension/plate) was “inactive; negative”.
`CC(=O)N(Cl)c1ccc2c(c1)Cc1ccccc1-2` was tested, and the mutagenic call [2] was “active; positive”.
For `BrCc1cc2c3c(cccc3c1)-c1ccccc1-2`, the mutagenic call [1] was “active; positive” and the mutagenic call [3] was “active; positive”.
In the case of `CN(C)C(=S)SNCCNSC(=S)N(C)C`, the mutagenic call [3] is reported as “active; positive” and the mutagenic call (Test System: AMES SALMONELLA TYPHIMURIUM, Strain/Indicator: TA100, Metabolic Activation: S-9 MIX, Method: STANDARD PLATE) is reported as “inactive; negative”.
`CN(C)c1ncnc2nc[nH]c12` was tested, and the mutagenic call [10] was “inactive; negative”, the mutagenic call (Test System: AMES SALMONELLA TYPHIMURIUM, Strain/Indicator: TA98, Metabolic Activation: RAT, LIVER, S9, Method: PREINCUBATION) was “inactive; negative” and the mutagenic call [11] was “inactive; negative”. For the same molecule, the mutagenic call (Test System: AMES SALMONELLA TYPHIMURIUM, Strain/Indicator: TA100, Metabolic Activation: RAT, LIVER, S9, Method: PREINCUBATION) was “inactive; negative”, the mutagenic call [12] was “active; positive” and the mutagenic call (Test System: AMES SALMONELLA TYPHIMURIUM, Strain/Indicator: TA1535, Metabolic Activation: RAT, LIVER, S9, Method: PREINCUBATION) was “active; positive”. For the same molecule, the mutagenic call (Test System: AMES SALMONELLA TYPHIMURIUM, Strain/Indicator: TA1537, Metabolic Activation: NONE, Method: PREINCUBATION) was “inactive; negative”, the mutagenic call (Test System: AMES SALMONELLA TYPHIMURIUM, Strain/Indicator: TA1537, Metabolic Activation: RAT, LIVER, S9, Method: PREINCUBATION) was “inactive; negative” and the mutagenic call (Test System: E. COLI, Strain/Indicator: WP2UVRA, Metabolic Activation: NONE, Method: PREINCUBATION) was “inactive; negative”. For the same molecule, the mutagenic call (Test System: E. COLI, Strain/Indicator: WP2UVRA, Metabolic Activation: RAT, LIVER, S9, Method: PREINCUBATION) was “inactive; negative”.
For `O=C1CC(c2ccc(O)cc2)Oc2cc(O)cc(O)c21` (stereo not given), the mutagenic call (Test System: AMES SALMONELLA TYPHIMURIUM, Strain/Indicator: TA98, Metabolic Activation: HAMSTER, LIVER, S-9, AROCLOR 1254, Method: STANDARD PLATE) was “inactive; negative”, the mutagenic call [1] was “inactive; negative” and the mutagenic call [2] was “inactive; negative”. For the same molecule, the mutagenic call (Test System: AMES SALMONELLA TYPHIMURIUM, Strain/Indicator: TA100, Metabolic Activation: HAMSTER, LIVER, S-9, AROCLOR 1254, Method: STANDARD PLATE) was “inactive; negative”, the mutagenic call [3] was “inactive; negative” and the mutagenic call [4] was “inactive; negative”. For the same molecule, the mutagenic call (Test System: AMES SALMONELLA TYPHIMURIUM, Strain/Indicator: TA1535, Metabolic Activation: HAMSTER, LIVER, S-9, AROCLOR 1254, Method: STANDARD PLATE) was “inactive; negative”, the mutagenic call [5] was “inactive; negative” and the mutagenic call [6] was “inactive; negative”. The mutagenic call (Test System: AMES SALMONELLA TYPHIMURIUM, Strain/Indicator: TA1537, Metabolic Activation: HAMSTER, LIVER, S-9, AROCLOR 1254, Method: STANDARD PLATE) was “inactive; negative”, the mutagenic call [7] was “inactive; negative” and the mutagenic call (Test System: AMES SALMONELLA TYPHIMURIUM, Strain/Indicator: TA1537, Metabolic Activation: RAT, LIVER, S-9, AROCLOR 1254, Method: STANDARD PLATE) was “inactive; negative”. For the same molecule, the mutagenic call (Test System: AMES SALMONELLA TYPHIMURIUM, Strain/Indicator: TA1538, Metabolic Activation: HAMSTER, LIVER, S-9, AROCLOR 1254, Method: STANDARD PLATE) was “inactive; negative”, the mutagenic call [8] was “inactive; negative” and the mutagenic call [9] was “inactive; negative”.
In the case of `CCOC(C)(C)C`, the mutagenic call (Test System: AMES SALMONELLA TYPHIMURIUM, Strain/Indicator: TA97, Metabolic Activation: HAMSTER, LIVER, S-9, AROCLOR 1254 (10 OR 30%), Method: PREINCUBATION) is reported as “inactive; negative”, the mutagenic call (Test System: AMES SALMONELLA TYPHIMURIUM, Strain/Indicator: TA97, Metabolic Activation: NONE, Method: PREINCUBATION) is reported as “inactive; negative” and the mutagenic call (Test System: AMES SALMONELLA TYPHIMURIUM, Strain/Indicator: TA97, Metabolic Activation: RAT, LIVER, S-9, AROCLOR 1254 (10 OR 30%), Method: PREINCUBATION) is reported as “inactive; negative”. The mutagenic call (Test System: AMES SALMONELLA TYPHIMURIUM, Strain/Indicator: TA98, Metabolic Activation: HAMSTER, LIVER, S-9, AROCLOR 1254 (10 OR 30%), Method: PREINCUBATION) was “inactive; negative”, the mutagenic call [10] was “inactive; negative” and the mutagenic call (Test System: AMES SALMONELLA TYPHIMURIUM, Strain/Indicator: TA98, Metabolic Activation: RAT, LIVER, S-9, AROCLOR 1254 (10 OR 30%), Method: PREINCUBATION) was “inactive; negative”. For the same molecule, the mutagenic call (Test System: AMES SALMONELLA TYPHIMURIUM, Strain/Indicator: TA100, Metabolic Activation: HAMSTER, LIVER, S-9, AROCLOR 1254 (10 OR 30%), Method: PREINCUBATION) was “inactive; negative”, the mutagenic call [11] was “inactive; negative” and the mutagenic call (Test System: AMES SALMONELLA TYPHIMURIUM, Strain/Indicator: TA100, Metabolic Activation: RAT, LIVER, S-9, AROCLOR 1254 (10 OR 30%), Method: PREINCUBATION) was “inactive; negative”. The mutagenic call (Test System: AMES SALMONELLA TYPHIMURIUM, Strain/Indicator: TA1535, Metabolic Activation: HAMSTER, LIVER, S-9, AROCLOR 1254 (10 OR 30%), Method: PREINCUBATION) was “inactive; negative”, the mutagenic call [12] was “inactive; negative” and the mutagenic call (Test System: AMES SALMONELLA TYPHIMURIUM, Strain/Indicator: TA1535, Metabolic Activation: RAT, LIVER, S-9, AROCLOR 1254 (10 OR 30%), Method: PREINCUBATION) was “inactive; negative”.
